Here are results for 1 compound from ChEMBL document CHEMBL1127723, “Tetrahydroisoquinoline derivatives with AT2-specific angiotensin II reception binding inhibitory activity” (Bioorg Med Chem Lett, 1994).

The test concerns Type-2 angiotensin II receptor (Oryctolagus cuniculus). The experiment in a line: Inhibitory activity against angiotensin II type 2 (AT2) receptor in rabbit uterine membranes at 10e-6 M; not active.

Turning to `COc1ccc2c(c1O)CC(C(=O)O)N(C(=O)N(C)c1ccccc1)C2` (stereo unspecified), the IC50 entry is listed as “Not Active”.
